Measurements taken from patent US7977069B2, “DNA encoding a CCK-8S G-protein coupled receptor, and vectors, transformants, cell kits, and methods employing such DNA” (Daiichi Sankyo Company, Limited, priority 2003, dated 2011).
Values belong to the molecule of their own block, whether it stands above or below them.

Legend:
[1] = system: CHO-K1 cell line; test: Change in intracellular Ca2+ concentration in non-transfected CHO-K1 host cell line (negative control cells); assay type: cell-based, Chinese hamster; details: for increase in intracellular Ca2+ concentration: CHO-K1 cell line not transfected, peptide final concentration 1 nM (Example 5)
Method: (§1) A specific method for measuring a change in intracellular Ca^2+ concentration in the HA-ph01207#10-6 cell line produced by CCK-8S (SEQ ID NO: 14) and the results thereof are described below. HA-ph01207#10-6 cell line was seeded in 96-well plates (plates with a black wall surface and transparent bottom) at a cell count of 2×10^4/100 μL medium/well and cultured at 37° C. in the presence of 5% CO2. DMEM/F12 (Gibco) containing 10% fetal calf serum (Moregate BioTech) was used as medium. The next day, 50 μL of medium was extracted from each well, and 50 μL of loading buffer was added each well and allowed to react at room temperature for 1.5 h so as to incorporate fluorescent dye contained in the loading buffer into cells. The loading buffer was prepared by dissolving component A of the FLIPR Calcium 3 Assay Kit (Molecular Devices Corp.) with a solution in which 0.1 mL of 500 mM probenecid (Sigma) was added to 9.9 mL of component B. After the reaction, a change in the fluorescence intensity upon addition of CCK-BS (Peptide Institute, Osaka, Japan) was measured along with time for each well using FLEXstation (Molecular Devices Corp.). Measurement was also performed in a similar manner for CCK-8NS (Peptide Institute, Osaka, Japan) and CCK-4 (Peptide Institute). For CCK-8S (SEQ ID NO: 14), 0.52 mg thereof was dissolved with 4.5 mL of 1% NaHCO3 (Wako) to prepare a 0.1 mM concentration solution. For CCK-8NS, after dissolving 0.53 mg thereof with 0.50 mL of dimethylsulfoxide (DMSO, Sigma), 4.50 mL of redistilled water was added thereto to prepare a 0.1 mM concentration solution. For CCK-4, after dissolving 0.54 mg thereof with 0.46 mL of DMSO, 4.09 mL of redistilled water was added thereto to prepare a 0.2 mM concentration solution. CCK-8S (SEQ ID NO: 14), CCK-8NS and CCK-4 were each diluted with phosphate buffered saline (PBS) to make a 5 nM solution, and measurement was performed after adding 25 μL (final concentration 1 nM) of each. As a positive control that induces an increase in intracellular Ca^2+ concentration, A23187 (Calbiochem, Calif.) was used at a final concentration of 10 μM. As a negative control, CHO-K1 cell line that was used as a host in production of the HA-ph01207#10-6 cell line was used. Since the ph01207 expression vector was not transfected into the CHO-K1 cell line, the ph01207 gene product was not expressed therein.
(§2) Using stably expressing cell line of a splicing variant of ph01207 gene, a change in intracellular calcium concentration (Ca^2+) caused by CCK-8S was measured using the same method described in Example 5. As the stably expressing cell line of the splicing variant of ph01207 gene, the stably expressing cell line constructed in Example 7 was used. Further, using stable expressing cell line of hk01941 gene, the same investigation was conducted. As the stably expressing cell line of hk01941 gene, the stably expressing cell line constructed in Example 7 was used. As a control, a host cell which was not transfected with 7tmHR expression vector or hk01941 expression vector was used.
(§3) The cell line was seeded in 96-well plates (plates with a black wall surface and transparent bottom) at 3×10^4 cells/100 μL medium/well and cultured overnight at 37° C. in the presence of 5% CO2. The next day, 50 μL of the medium was extracted from each well, and 50 μL of loading buffer was added to each well to allow for a reaction at room temperature for 1 h so as to incorporate fluorescent dye contained in the loading buffer into cells. The loading buffer was prepared by the same method as described in Example 5. After the reaction, a change in the fluorescence intensity upon addition of CCK-8S was measured along with time for each well using FLEXstation (Molecular Devices Corp.). CCK-8S was used at a final concentration of 10 μM-1 μM. Further, A23187 was used at a final concentration of 20 μM as a positive control of the assay. […]

[2] = biological target: T1, protein encoded by ph01207 (Homo sapiens, UniProt O60241, DEL308-362); test: Change in intracellular Ca2+ concentration in HA-ph01207#10-6 cell line (FLIPR Calcium 3, FLEXstation); assay type: cell-based; details: for rise in the intracellular Ca2+ concentration: peptide final concentration 1 nM
T1 construct: expressed in transfected cells; host or cells: CHO-K1 (HA-ph01207#10-6, FERM BP-10101)
T1 sequence (O60241 with tags, fused parts or gaps DEL308-362): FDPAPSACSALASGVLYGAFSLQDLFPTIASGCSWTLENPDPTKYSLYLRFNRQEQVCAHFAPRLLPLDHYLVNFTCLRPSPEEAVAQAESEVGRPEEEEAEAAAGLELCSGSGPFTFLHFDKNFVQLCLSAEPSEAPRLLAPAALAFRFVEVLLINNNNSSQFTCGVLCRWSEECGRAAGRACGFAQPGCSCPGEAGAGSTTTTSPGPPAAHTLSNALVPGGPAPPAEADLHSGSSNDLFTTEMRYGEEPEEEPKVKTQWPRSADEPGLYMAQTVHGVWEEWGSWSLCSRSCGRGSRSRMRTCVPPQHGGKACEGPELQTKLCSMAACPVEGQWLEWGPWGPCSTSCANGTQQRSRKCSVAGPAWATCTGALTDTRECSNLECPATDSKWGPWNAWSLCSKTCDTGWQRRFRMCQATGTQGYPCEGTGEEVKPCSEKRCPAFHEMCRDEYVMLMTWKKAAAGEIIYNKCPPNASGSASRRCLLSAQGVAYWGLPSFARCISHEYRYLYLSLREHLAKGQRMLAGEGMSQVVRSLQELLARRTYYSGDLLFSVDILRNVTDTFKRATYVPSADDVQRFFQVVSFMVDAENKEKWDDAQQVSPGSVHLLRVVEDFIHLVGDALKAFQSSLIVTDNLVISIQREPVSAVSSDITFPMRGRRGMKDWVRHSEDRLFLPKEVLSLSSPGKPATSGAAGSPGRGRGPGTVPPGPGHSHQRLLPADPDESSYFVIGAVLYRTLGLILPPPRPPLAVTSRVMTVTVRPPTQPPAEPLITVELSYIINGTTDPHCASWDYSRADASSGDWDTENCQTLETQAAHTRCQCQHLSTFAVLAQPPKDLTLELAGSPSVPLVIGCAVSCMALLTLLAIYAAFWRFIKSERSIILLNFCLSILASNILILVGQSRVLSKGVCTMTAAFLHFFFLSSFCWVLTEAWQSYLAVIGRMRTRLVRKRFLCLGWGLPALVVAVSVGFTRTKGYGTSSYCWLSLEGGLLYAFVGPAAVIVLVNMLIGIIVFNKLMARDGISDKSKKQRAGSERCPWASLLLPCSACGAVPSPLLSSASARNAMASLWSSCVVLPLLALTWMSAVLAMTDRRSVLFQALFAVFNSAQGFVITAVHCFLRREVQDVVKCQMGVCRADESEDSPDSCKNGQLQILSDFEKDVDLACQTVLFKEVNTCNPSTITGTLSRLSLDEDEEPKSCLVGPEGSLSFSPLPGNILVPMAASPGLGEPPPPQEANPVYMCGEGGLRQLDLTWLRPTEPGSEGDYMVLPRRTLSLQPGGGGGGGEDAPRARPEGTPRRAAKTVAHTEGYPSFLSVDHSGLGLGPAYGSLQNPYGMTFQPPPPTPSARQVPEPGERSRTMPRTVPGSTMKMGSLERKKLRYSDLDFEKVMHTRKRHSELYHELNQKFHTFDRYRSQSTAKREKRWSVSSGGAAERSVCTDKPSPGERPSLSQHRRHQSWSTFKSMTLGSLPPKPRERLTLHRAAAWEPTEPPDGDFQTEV
Method: Changes in intracellular calcium (Ca^2+) concentrations caused by CCK-8S(SEQ ID NO: 14), CCK-8NS and CCK-4 were determined using the […] expression cell lines prepared in Example 2. The cell lines prepared in Example 2 are eight lines in which the protein encoded by ph01207 expresses as a FLAG-tag fusion protein and four lines in which the protein encoded by ph01207 expresses as a HA-tag fusion protein. Among these, in this example HA-ph01207#10-6 cell line was used as a line obtained by cellular cloning of one cell line that stably expresses the protein encoded by ph01207 as a HA-tag fusion protein. Although CCK-8NS is a CCK octapeptide consisting of the same amino acid sequence as CCK-8S (SEQ ID NO: 14), the seventh tyrosine residue from the C-terminal thereof is not sulfated. CCK-4 is a tetrapeptide consisting of the amino acid residues from the C-terminus to the fourth amino acid residue of CCK-8S (SEQ ID NO: 14).
as §1, with “CCK-8S (SEQ ID NO: 14), CCK-8NS and CCK-4 were each diluted with phosphate buffered saline (PBS) to make a 5 nM solution, and measurement was performed after adding 25 μL (final concentration 1 nM) of each. As a positive control that induces an increase in intracellular Ca^2+ concentration, A23187 (Calbiochem, Calif.) was used at a final concentration of 10 μM. As a negative control, CHO-K1 cell line that was used as a host in production of the HA-ph01207#10-6 cell line was used. Since the ph01207 expression vector was not transfected into the CHO-K1 cell line, the ph01207 gene product was not expressed therein.” left out

[3] = biological target: T2, 7tmHR gene product (Homo sapiens, UniProt O60241); test: Change in intracellular Ca2+ concentration in 7tmHR stably expressing cell line; assay type: cell-based; details: A23187 20 μM
T2 construct: three kinds of full length cDNA clones were obtained; expressed in transfected cells; host or cells: CHO-K1 (7tmHR/pcDNA3.1)
T2 sequence (O60241 13-1585): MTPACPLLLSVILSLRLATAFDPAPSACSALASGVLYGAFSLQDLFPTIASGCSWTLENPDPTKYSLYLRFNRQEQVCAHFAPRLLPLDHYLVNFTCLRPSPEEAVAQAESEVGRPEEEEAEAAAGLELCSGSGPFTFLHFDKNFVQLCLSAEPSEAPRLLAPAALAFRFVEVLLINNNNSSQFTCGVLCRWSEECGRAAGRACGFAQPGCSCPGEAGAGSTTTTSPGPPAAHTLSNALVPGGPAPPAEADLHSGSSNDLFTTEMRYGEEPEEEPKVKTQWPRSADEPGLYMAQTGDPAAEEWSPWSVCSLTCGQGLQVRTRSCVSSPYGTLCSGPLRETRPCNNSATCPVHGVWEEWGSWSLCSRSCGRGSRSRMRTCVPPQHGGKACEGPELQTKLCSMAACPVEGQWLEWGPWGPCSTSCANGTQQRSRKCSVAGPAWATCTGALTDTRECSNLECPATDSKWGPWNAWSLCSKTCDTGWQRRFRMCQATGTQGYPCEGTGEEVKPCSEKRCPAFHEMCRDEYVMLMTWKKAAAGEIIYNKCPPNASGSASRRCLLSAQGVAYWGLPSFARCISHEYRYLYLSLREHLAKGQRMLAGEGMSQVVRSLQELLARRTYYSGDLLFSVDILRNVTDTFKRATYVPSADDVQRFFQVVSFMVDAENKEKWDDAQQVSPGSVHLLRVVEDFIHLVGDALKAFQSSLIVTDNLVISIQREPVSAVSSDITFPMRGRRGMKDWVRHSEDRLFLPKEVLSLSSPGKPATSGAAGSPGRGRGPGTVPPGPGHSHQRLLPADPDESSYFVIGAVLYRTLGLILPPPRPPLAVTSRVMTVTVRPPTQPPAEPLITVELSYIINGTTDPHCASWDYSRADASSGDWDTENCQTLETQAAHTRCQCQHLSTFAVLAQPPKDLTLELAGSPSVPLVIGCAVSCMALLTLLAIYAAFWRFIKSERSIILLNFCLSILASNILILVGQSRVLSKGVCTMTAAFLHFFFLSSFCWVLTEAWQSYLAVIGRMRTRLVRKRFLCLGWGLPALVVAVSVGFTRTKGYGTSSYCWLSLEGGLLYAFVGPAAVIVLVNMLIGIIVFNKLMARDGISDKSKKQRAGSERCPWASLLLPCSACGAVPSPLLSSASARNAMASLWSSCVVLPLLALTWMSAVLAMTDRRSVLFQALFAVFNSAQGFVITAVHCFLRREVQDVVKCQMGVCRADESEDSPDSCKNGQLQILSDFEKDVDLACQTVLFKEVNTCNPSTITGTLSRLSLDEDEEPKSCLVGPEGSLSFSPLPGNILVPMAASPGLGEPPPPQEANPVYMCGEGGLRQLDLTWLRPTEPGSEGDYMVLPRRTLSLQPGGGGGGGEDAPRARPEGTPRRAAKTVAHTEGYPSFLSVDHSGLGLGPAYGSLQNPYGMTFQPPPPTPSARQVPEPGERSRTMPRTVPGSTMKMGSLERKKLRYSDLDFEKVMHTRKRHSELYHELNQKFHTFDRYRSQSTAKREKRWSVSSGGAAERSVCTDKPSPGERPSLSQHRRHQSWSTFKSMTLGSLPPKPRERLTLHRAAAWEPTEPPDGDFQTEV
Method: as §2
as §3, with “Corp.).” for “Corp.). CCK-8S was used at a final concentration of 10 μM-1 μM. Further, A23187 was used at a final concentration of 20 μM as a positive control of the assay.”

[4] = system: hk01941 gene product; test: Change in intracellular Ca2+ concentration in hk01941 stably expressing cell line; assay type: cell-based, human; details: A23187 20 μM
Method: as §2
as §3, with “Corp.).” for “Corp.). CCK-8S was used at a final concentration of 10 μM-1 μM. Further, A23187 was used at a final concentration of 20 μM as a positive control of the assay.”

[5] = system: variant 3 gene product; test: Change in intracellular Ca2+ concentration in variant 3 stably expressing cell line; assay type: cell-based, human; details: A23187 20 μM
Method: The function of variant 3 gene was analyzed using stably expressing cell line of variant 3 gene by investigating a change in intracellular calcium concentration (Ca^2+) caused by CCK-8S. The change in intracellular calcium concentration (Ca^2+) was measured using the same method described in Example 5. The stably expressing cell line of variant 3 gene was prepared using the variant 3 gene expression vector constructed in Example 7 by the method similar to the method described in Example 7.
The cell line was seeded in 96-well plates (plates with a black wall surface and transparent bottom) at 3×10^4 cells/100 μL medium/well and cultured overnight at 37° C. in the presence of 5% CO2. The next day, 50 μL of the medium was exited from each well, and 50 μL of loading buffer was added to each well to allow for a reaction at room temperature for 1 h so as to incorporate fluorescent dye contained in the loading buffer into cells. The loading buffer was prepared by the same method as described in Example 5. After the reaction, a change in the fluorescence intensity upon addition of CCK-8S was measured along with time for each well for 40 sec using FLEXstation (Molecular Devices Corp.). CCK-8S was used at a final concentration of 10 pM-1 μM. Further, A23187 was used at a final concentration of 20 μM as a positive control of the assay.

[6] = CCK-8S administered to diabetes patients (Bo, A. et al., 2000); cited from earlier work

Molecule: CCK-4: tetrapeptide consisting of the amino acid residues from the C-terminus to the fourth residue of CCK-8S
- increase in intracellular Ca2+ concentration [1]: no increase
- rise in the intracellular Ca2+ concentration [2]: not observed

Molecule: CNc1ccc2oc(C[C@H]3O[C@@]4(CC[C@H]3C)O[C@H]([C@H](C)C(=O)c3ccc[nH]3)[C@H](C)C[C@H]4C)nc2c1C(=O)O [A23187]
- response (intracellular Ca2+) to positive control [3]: observed similarly
- response (intracellular Ca2+) to positive control [4]: observed similarly
- response (intracellular Ca2+) to positive control [5]: observed similarly
- response (intracellular Ca2+) to positive control ([1]; CHO-K1 host cell, A23187 20 μM (Examples 8 and 9)): observed similarly

- rise in the intracellular Ca2+ concentration [2]: not observed
Molecule: CCK-8 Nonsulfated form [CCK-8NS]
- increase in intracellular Ca2+ concentration [1]: no increase

- level of increase in the intracellular Ca2+ concentration compared with that produced by A23187 ([2]; 1 nM CCK-8S vs 10 μM A23187): roughly equal
- rise in the intracellular Ca2+ concentration [2]: rose
Molecule: cholecystokinin octapeptide sulfated form [CCK-8S]
- increase in intracellular Ca2+ concentration [1]: no increase
- change in intracellular calcium concentration ([1]; host cell not transfected with variant 3 expression vector, CCK-8S (Example 9)): not observed
- change in intracellular calcium concentration ([1]; host cell transfected with neither 7tmHR nor hk01941 expression vector, CCK-8S (Example 8)): not observed
- increase in insulin amounts [6]: promoted
- increase in postcibal glucose amount [6]: suppressed
